Source: patent US20040117125A1, “Drug discovery method and apparatus” (priority 1999, published 2004)

Columns and labels:
[1] = tested on: MPTP-treated monkeys; details: combined with L-Dopa or selective dopamine agonists (D1 or D2); cited from earlier work
[2] = tested on: GABA-A; assay: Fluridone/bicuculline in vivo GABA-A agonism/antagonism assay; details: mice, bicuculline 5 mg/kg alone

For `CCn1c(=O)c2c(nc(/C=C/c3ccc(OC)c(OC)c3)n2C)n(CC)c1=O` [KW-6002], the dyskinesia [1] is given as “does not induce dyskinesia”.
In the case of `CN1CCc2cc3c(cc2[C@H]1[C@@H]1OC(=O)c2c1ccc1c2OCO1)OCO3` [bicuculline], the seizures [2] is reported as “induced immediate seizures” and the Death rate ([2]; within ten to twenty second after injection) is reported as 100%.
